What was measured:
Assay in all cases: KINOMEscan
Assay type in all cases: binding
JNK2 = biological target: T1, JNK2 (Homo sapiens, UniProt P45984); details: JNK2, 1 uM
T1 construct: purchased Ambit KINOMEscan (DiscoverX)
Protocol: (§1) First, we used Ambit's KINOMEscan™ technology to identify those kinases that are inhibited for substrate binding by the compounds, all assayed at 1 μM. Second, we used Invitrogen's SelectScreen® Biochemical Kinase Profiling Service to determine the in vitro IC50s for the compounds against specific kinases.

CDK9 = biological target: T2, CDK9 (Homo sapiens, UniProt P50750); details: for % binding compared to no inhibitor control: CDK9, 1 uM
T2 construct: purchased Ambit KINOMEscan (DiscoverX)
Protocol: as §1

MRCKB = biological target: T3, MRCKB (Homo sapiens, UniProt Q9Y5S2); details: 1 uM
T3 construct: purchased Ambit KINOMEscan (DiscoverX)
Protocol: as §1

AURKA = biological target: T4, AURKA (Homo sapiens, UniProt O14965); details: 1 uM
T4 construct: purchased Ambit KINOMEscan (DiscoverX)
Protocol: as §1

[1] = biological target: T5, ABL1(E255K)-phosphorylated (Homo sapiens, UniProt P00519, E255K); details: 1 uM
T5 construct: purchased Ambit KINOMEscan (DiscoverX)
Protocol: as §1

CLK2 = biological target: T6, CLK2 (Homo sapiens, UniProt P49760); details: CLK2, 1 uM
T6 construct: purchased Ambit KINOMEscan (DiscoverX)
Protocol: as §1

MAPKAPK5 = biological target: T7, MAPKAPK5 (Homo sapiens, UniProt Q8IW41); details: MAPKAPK5, 1 uM
T7 construct: purchased Ambit KINOMEscan (DiscoverX)
Protocol: as §1

GRK7 = biological target: T8, GRK7 (Homo sapiens, UniProt Q8WTQ7); details: GRK7, 1 uM
T8 construct: purchased Ambit KINOMEscan (DiscoverX)
Protocol: as §1

PKAC-alpha = biological target: T9, PKAC-alpha (Homo sapiens, UniProt P17612); details: 1 uM
T9 construct: purchased Ambit KINOMEscan (DiscoverX)
Protocol: as §1

EGFR(G719C) = biological target: T10, EGFR(G719C) (Homo sapiens, UniProt P00533, G719C); details: 1 uM
T10 construct: purchased Ambit KINOMEscan (DiscoverX)
Protocol: as §1

CSNK1E = biological target: T11, CSNK1E (Homo sapiens, UniProt P49674); details: 1 uM
T11 construct: purchased Ambit KINOMEscan (DiscoverX)
Protocol: as §1

PKN2 = biological target: T12, PKN2 (Homo sapiens, UniProt Q16513); details: PKN2, 1 uM
T12 construct: purchased Ambit KINOMEscan (DiscoverX)
Protocol: as §1

PDGFRB = biological target: T13, PDGFRB (Homo sapiens, UniProt P09619); details: 1 uM
T13 construct: purchased Ambit KINOMEscan (DiscoverX)
Protocol: as §1

MAP4K2 = biological target: T14, MAP4K2 (Homo sapiens, UniProt Q12851); details: for % binding compared to no inhibitor control: MAP4K2, 1 uM
T14 construct: purchased Ambit KINOMEscan (DiscoverX)
T14 sequence (Q12851 1-820): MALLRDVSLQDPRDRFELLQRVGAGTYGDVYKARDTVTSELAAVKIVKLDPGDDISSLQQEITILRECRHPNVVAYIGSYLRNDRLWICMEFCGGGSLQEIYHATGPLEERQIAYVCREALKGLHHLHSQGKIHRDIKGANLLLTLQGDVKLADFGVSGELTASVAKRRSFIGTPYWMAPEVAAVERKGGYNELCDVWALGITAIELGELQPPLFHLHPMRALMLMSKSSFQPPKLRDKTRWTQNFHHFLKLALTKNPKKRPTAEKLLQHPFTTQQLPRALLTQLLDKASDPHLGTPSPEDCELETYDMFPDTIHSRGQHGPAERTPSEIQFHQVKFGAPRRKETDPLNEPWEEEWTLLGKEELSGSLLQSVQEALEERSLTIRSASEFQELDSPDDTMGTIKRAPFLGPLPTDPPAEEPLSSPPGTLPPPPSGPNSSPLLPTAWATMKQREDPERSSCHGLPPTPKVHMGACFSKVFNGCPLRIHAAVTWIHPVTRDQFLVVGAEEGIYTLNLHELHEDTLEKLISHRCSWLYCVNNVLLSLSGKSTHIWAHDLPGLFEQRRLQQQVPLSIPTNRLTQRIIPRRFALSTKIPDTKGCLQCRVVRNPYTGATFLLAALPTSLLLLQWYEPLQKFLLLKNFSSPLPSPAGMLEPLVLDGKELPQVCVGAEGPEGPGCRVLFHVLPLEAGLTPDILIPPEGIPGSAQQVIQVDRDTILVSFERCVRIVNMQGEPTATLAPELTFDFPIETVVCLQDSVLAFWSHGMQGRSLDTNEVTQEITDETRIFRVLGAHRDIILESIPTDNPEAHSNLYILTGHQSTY
Protocol: as §1

DLK = biological target: T15, DLK (Homo sapiens, UniProt Q12852); details: 1 uM
T15 construct: purchased Ambit KINOMEscan (DiscoverX)
Protocol: as §1

CSNK1G2 = biological target: T16, CSNK1G2 (Homo sapiens, UniProt P78368); details: CSNK1G2, 1 uM
T16 construct: purchased Ambit KINOMEscan (DiscoverX)
Protocol: as §1

CDK3 = biological target: T17, CDK3 (Homo sapiens, UniProt Q00526); details: CDK3, 1 uM
T17 construct: purchased Ambit KINOMEscan (DiscoverX)
Protocol: as §1

CAMK1 = biological target: T18, CAMK1 (Homo sapiens, UniProt Q14012); details: CAMK1, 1 uM
T18 construct: purchased Ambit KINOMEscan (DiscoverX)
Protocol: as §1

EPHB1 = biological target: T19, EPHB1 (Homo sapiens, UniProt P54762); details: EPHB1, 1 uM
T19 construct: purchased Ambit KINOMEscan (DiscoverX)
Protocol: as §1

ADCK3 = biological target: T20, ADCK3 (Homo sapiens, UniProt Q8NI60); details: ADCK3, 1 uM
T20 construct: purchased Ambit KINOMEscan (DiscoverX)
Protocol: as §1

PAK6 = biological target: T21, PAK6 (Homo sapiens, UniProt Q9NQU5); details: PAK6, 1 uM
T21 construct: purchased Ambit KINOMEscan (DiscoverX)
Protocol: as §1

TEC = biological target: T22, TEC (Homo sapiens, UniProt P42680); details: 1 uM
T22 construct: purchased Ambit KINOMEscan (DiscoverX)
Protocol: as §1

CSNK2A2 = biological target: T23, CSNK2A2 (Homo sapiens, UniProt P19784); details: CSNK2A2, 1 uM
T23 construct: purchased Ambit KINOMEscan (DiscoverX)
Protocol: as §1

ROCK2 = biological target: T24, ROCK2 (Homo sapiens, UniProt O75116); details: for % binding compared to no inhibitor control: ROCK2, 1 uM
T24 construct: purchased Ambit KINOMEscan (DiscoverX)
Protocol: as §1

KIT(V559D,V654A) = biological target: T25, KIT(V559D,V654A) (Homo sapiens, UniProt P10721, V559D/V654A); details: 1 uM
T25 construct: purchased Ambit KINOMEscan (DiscoverX)
Protocol: as §1

STK36 = biological target: T26, STK36 (Homo sapiens, UniProt Q9NRP7); details: STK36, 1 uM
T26 construct: purchased Ambit KINOMEscan (DiscoverX)
Protocol: as §1

EGFR(L858R) = biological target: T27, EGFR(L858R) (Homo sapiens, UniProt P00533, L858R); details: 1 uM
T27 construct: purchased Ambit KINOMEscan (DiscoverX)
Protocol: as §1

CAMK1G = biological target: T28, CAMK1G (Homo sapiens, UniProt Q96NX5); details: 1 uM
T28 construct: purchased Ambit KINOMEscan (DiscoverX)
Protocol: as §1

WEE1 = biological target: T29, WEE1 (Homo sapiens, UniProt P30291); details: WEE1, 1 uM
T29 construct: purchased Ambit KINOMEscan (DiscoverX)
Protocol: as §1

T24 sequence (O75116 whole entry): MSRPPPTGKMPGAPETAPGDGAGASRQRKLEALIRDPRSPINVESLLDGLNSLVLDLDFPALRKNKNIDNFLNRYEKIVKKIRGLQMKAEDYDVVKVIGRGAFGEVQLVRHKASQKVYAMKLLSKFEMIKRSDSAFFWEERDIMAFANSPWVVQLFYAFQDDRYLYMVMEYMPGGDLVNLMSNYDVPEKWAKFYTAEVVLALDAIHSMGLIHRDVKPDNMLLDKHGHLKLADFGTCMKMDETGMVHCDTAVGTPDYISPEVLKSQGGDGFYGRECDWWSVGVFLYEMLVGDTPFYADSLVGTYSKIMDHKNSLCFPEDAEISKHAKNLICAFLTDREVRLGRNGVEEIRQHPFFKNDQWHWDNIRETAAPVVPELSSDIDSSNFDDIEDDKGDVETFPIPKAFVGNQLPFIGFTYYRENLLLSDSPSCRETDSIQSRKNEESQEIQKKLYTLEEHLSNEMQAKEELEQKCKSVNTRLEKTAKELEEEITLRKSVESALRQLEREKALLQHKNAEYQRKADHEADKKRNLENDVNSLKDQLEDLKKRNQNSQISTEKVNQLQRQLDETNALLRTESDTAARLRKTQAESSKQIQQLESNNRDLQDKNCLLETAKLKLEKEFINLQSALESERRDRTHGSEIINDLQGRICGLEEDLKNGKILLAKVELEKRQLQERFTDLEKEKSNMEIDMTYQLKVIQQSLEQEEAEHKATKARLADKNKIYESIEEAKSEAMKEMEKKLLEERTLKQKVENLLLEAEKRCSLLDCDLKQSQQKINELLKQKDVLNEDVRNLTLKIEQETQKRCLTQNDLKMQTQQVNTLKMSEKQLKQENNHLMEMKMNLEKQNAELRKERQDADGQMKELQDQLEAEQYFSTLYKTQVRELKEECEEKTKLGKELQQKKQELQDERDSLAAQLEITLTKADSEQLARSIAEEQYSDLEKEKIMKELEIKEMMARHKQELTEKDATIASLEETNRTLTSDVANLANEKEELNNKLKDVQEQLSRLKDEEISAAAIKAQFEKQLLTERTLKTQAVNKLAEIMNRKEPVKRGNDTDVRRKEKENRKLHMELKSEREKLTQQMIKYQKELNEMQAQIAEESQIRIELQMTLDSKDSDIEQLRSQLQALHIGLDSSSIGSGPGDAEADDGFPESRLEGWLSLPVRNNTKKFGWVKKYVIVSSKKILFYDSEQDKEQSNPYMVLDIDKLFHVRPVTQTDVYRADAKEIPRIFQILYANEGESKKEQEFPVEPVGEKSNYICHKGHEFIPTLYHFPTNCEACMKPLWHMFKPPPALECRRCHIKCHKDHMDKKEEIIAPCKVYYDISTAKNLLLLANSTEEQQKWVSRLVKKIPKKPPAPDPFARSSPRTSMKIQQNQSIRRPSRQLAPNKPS
T2 sequence (P50750 whole entry): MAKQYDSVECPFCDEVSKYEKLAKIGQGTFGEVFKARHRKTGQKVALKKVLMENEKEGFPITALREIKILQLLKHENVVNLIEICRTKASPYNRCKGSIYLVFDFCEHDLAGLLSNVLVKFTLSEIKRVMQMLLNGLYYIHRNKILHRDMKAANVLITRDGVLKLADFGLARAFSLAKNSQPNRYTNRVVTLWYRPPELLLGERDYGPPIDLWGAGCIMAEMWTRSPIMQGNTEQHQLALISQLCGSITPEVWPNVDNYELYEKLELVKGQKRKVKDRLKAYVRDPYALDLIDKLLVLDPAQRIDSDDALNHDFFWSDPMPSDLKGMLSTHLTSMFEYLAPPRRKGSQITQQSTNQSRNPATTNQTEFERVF
T18 sequence (Q14012 whole entry): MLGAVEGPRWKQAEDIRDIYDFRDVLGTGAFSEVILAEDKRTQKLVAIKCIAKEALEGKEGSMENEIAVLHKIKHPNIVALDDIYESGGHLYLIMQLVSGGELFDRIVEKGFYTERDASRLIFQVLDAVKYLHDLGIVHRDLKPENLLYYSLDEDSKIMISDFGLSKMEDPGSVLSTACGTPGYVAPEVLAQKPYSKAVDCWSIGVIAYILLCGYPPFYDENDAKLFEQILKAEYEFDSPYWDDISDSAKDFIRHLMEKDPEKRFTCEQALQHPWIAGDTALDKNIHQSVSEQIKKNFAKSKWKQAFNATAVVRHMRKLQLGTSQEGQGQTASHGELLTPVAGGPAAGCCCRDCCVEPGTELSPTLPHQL
T22 sequence (P42680 whole entry): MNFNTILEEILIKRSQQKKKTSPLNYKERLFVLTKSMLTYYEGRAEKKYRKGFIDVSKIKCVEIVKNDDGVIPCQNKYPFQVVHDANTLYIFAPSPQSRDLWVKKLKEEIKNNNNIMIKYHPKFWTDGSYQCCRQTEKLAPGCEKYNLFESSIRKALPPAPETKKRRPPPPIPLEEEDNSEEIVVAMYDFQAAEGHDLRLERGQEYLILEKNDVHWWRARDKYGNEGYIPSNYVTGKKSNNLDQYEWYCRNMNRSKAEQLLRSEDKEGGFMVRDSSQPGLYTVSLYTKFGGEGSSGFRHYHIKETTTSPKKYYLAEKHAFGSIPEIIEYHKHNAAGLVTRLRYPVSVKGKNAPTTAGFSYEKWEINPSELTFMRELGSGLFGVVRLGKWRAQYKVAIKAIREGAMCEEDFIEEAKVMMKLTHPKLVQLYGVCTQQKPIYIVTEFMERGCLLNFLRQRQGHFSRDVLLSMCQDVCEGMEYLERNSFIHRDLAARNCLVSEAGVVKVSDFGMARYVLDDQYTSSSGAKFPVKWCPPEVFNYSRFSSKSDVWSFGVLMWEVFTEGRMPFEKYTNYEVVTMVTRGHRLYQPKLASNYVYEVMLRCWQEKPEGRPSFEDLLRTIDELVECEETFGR
T5 sequence (P00519 whole entry E255K): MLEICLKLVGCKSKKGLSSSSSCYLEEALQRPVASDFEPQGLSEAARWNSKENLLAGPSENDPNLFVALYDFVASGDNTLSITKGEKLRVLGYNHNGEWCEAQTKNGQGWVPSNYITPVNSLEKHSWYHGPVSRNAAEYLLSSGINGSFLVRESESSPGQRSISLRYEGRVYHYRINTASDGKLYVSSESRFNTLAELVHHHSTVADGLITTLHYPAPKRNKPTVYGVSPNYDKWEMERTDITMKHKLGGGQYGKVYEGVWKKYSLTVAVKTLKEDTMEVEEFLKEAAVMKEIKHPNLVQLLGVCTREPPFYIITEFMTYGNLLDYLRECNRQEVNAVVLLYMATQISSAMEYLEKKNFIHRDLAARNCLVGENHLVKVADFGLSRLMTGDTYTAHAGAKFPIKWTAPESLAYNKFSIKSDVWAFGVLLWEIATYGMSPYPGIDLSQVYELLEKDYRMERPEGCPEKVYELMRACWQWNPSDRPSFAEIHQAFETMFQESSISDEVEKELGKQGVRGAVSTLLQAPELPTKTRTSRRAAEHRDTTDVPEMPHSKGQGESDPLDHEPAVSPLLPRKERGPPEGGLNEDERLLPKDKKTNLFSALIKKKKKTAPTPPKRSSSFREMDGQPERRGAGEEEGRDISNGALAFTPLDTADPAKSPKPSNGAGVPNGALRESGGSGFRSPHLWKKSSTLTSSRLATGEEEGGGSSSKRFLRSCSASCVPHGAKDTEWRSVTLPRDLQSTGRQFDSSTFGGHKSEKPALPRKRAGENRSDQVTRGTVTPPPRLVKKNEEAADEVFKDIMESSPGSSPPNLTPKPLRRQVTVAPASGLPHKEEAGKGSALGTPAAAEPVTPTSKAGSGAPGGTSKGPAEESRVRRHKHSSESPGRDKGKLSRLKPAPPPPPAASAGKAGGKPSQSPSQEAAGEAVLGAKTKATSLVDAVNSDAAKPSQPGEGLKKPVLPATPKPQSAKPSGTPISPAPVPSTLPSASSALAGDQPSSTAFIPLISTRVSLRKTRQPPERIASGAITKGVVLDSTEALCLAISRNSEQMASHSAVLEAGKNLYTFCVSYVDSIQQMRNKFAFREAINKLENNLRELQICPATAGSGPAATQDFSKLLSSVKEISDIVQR
T19 sequence (P54762 18-984): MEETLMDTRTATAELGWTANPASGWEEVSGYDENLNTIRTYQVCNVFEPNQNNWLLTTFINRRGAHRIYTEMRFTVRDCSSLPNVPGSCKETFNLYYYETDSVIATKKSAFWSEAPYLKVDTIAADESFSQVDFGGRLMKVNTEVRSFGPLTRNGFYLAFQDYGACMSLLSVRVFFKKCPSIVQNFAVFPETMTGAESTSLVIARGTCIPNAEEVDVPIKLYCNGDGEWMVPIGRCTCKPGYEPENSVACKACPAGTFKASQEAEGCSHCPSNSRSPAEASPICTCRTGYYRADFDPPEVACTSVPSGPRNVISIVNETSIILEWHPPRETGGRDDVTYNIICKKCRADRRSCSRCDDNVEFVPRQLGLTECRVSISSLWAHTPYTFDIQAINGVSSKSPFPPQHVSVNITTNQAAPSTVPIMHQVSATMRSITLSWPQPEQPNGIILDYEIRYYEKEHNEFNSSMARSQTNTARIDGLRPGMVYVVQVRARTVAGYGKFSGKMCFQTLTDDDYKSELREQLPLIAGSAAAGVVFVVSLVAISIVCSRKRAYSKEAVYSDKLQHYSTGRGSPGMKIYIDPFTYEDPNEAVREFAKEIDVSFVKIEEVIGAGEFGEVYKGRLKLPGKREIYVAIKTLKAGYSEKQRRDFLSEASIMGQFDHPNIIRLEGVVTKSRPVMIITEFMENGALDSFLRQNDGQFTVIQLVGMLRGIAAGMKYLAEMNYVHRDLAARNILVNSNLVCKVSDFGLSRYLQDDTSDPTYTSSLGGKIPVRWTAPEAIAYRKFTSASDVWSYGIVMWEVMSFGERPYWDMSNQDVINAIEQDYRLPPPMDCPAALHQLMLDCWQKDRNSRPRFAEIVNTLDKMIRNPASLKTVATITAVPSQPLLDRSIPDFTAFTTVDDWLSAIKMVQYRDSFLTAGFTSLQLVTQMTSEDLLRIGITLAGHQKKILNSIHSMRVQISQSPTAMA

Row | Compound | % binding compared to no inhibitor control (JNK2) [%] | % binding compared to no inhibitor control (CDK9) [%] | % binding compared to no inhibitor control (MRCKB) [%] | % binding compared to no inhibitor control (AURKA) [%] | % binding compared to no inhibitor control [1] [%] | % binding compared to no inhibitor control (CLK2) [%] | % binding compared to no inhibitor control (MAPKAPK5) [%] | % binding compared to no inhibitor control (GRK7) [%] | % binding compared to no inhibitor control (PKAC-alpha) [%] | % binding compared to no inhibitor control (EGFR(G719C)) [%] | % binding compared to no inhibitor control (CSNK1E) [%] | % binding compared to no inhibitor control (PKN2) [%] | % binding compared to no inhibitor control (PDGFRB) [%] | % binding compared to no inhibitor control (MAP4K2) [%] | % binding compared to no inhibitor control (DLK) [%] | % binding compared to no inhibitor control (CSNK1G2) [%] | % binding compared to no inhibitor control (CDK3) [%] | % binding compared to no inhibitor control (CAMK1) [%] | % binding compared to no inhibitor control (EPHB1) [%] | % binding compared to no inhibitor control (ADCK3) [%] | further results
1 | COc1ccc(-c2cc3nccn3c(Nc3ncccc3C(N)=O)n2)cc1OC.Cl.Cl [BAY61-3606, 2-[7-(3,4-dimethoxyphenyl)-imidazo [1,2-c]pyrimidin-5-ylamino] nicotinamide dihydrochloride, reference compound] | 100 | 56 | 99 | 91 | 100 | 12 | 100 | 59 | 90 | 68 | 94 | 34 | 47 | 6 | 87 | 100 | 89 | 62 | 90 | 99 | % inhibition ATP binding (CDK9; CDK9, KINOMEscan, 1 μM): 44%; % inhibition ATP binding (MAP4K2; MAP4K2, KINOMEscan, 1 μM): 94%; % binding compared to no inhibitor control (PAK6): 65%; % binding compared to no inhibitor control (TEC): 100%; % binding compared to no inhibitor control (CSNK2A2): 54%; % binding compared to no inhibitor control (ROCK2): 13%; % inhibition ATP binding (ROCK2; ROCK2, KINOMEscan, 1 μM): 87%; % binding compared to no inhibitor control (KIT(V559D,V654A)): 71%; % binding compared to no inhibitor control (STK36): 74%; % binding compared to no inhibitor control (EGFR(L858R)): 100%; % binding compared to no inhibitor control (CAMK1G): 82%; % binding compared to no inhibitor control (WEE1): 89%
2 | COc1ccccc1Nc1nc(-c2ccc(OC)c(OC)c2)cc2nccn12 [BAY derivative 6] | 100 | 100 | 100 | 87 | 60 | 63 | 100 | 100 | 72 | 100 | 100 | 91 | 67 | 100 | 100 | 100 | 94 | 100 | 100 | 87 | % binding compared to no inhibitor control (PAK6): 99%; % binding compared to no inhibitor control (TEC): 100%; % binding compared to no inhibitor control (CSNK2A2): 100%; % binding compared to no inhibitor control (ROCK2): 96%; % binding compared to no inhibitor control (KIT(V559D,V654A)): 100%; % binding compared to no inhibitor control (STK36): 100%; % binding compared to no inhibitor control (EGFR(L858R)): 88%; % binding compared to no inhibitor control (CAMK1G): 98%; % binding compared to no inhibitor control (WEE1): 100%
